Data reported in the supplement of paper PMC9663587.

Tests used:
THZ1 [1] = compound: T1, CN(C)C/C=C/C(=O)Nc1ccc(C(=O)Nc2cccc(Nc3ncc(Cl)c(-c4c[nH]c5ccccc45)n3)c2)cc1 [THZ1]; assay: increase in dead-cell fraction, 72 h; higher = more death;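 note: breast cancer cell lines in 384-well plates, stained with Hoechst plus LIVE/DEAD far red dye and imaged, cells above an LDR intensity threshold counted dead, Hoechst-negative corpses included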
LEE011/Ribociclib = compound: CN(C)C(=O)c1cc2cnc(Nc3ccc(N4CCNCC4)cn3)nc2n1C1CCCC1 [LEE011/Ribociclib]; assay: as above
BSJ-03-123 = compound: CC(=O)c1c(C)c2cnc(Nc3ccc(N4CCN(CCOCCOCCOCCNC(=O)COc5cccc6c5C(=O)N(C5CCC(=O)NC5=O)C6=O)CC4)cn3)nc2n(C2CCCC2)c1=O [BSJ-03-123]; assay: as above
Flavopiridol [2] = compound: T2, CN1CC[C@H](c2c(O)cc(O)c3c(=O)cc(-c4ccccc4Cl)oc23)[C@H](O)C1 [Flavopiridol]; assay: as above
[3] = compound: CCc1cnn2c(NCc3ccc[n+]([O-])c3)cc(N3CCCC[C@H]3CCO)nc12; assay: as above
Neratinib/HKI272 = compound: CCOc1cc2ncc(C#N)c(Nc3ccc(OCc4ccccn4)c(Cl)c3)c2cc1NC(=O)/C=C/CN(C)C [Neratinib/HKI272]; assay: as above
[4] = compound: CCN1CCN(Cc2ccc(Nc3ncc(F)c(-c4cc(F)c5nc(C)n(C(C)C)c5c4)n3)nc2)CC1; assay: as above
[5] = compound: CC(=O)c1c(C)c2cnc(Nc3ccc(N4CCNCC4)cn3)nc2n(C2CCCC2)c1=O; assay: as above
THZ1 [6] = compound: T1, THZ1; assay: GR value, 72 h; higher = faster growth (1 = untreated, <0 = killing);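 note: breast cancer and non-malignant breast epithelial lines, nine half-log doses, viable cells counted by Hoechst and LIVE/DEAD dye imaging versus time-zero plates and DMSO controls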
Flavopiridol [7] = compound: T2, Flavopiridol; assay: as above
THZ531 = compound: CN(C)C/C=C/C(=O)Nc1ccc(C(=O)N2CCC[C@@H](Nc3ncc(Cl)c(-c4c[nH]c5ccccc45)n3)C2)cc1 [THZ531]; assay: as above
[8] = compound: CC(=O)c1c(C)c2cnc(Nc3ccc(N4CCNCC4)cn3)nc2n(C2CCCC2)c1=O; assay: as above

Cell Line: MDAMB453
- increase in dead-cell fraction (THZ1 [1]; 0.0001 µM): 0.0006
- increase in dead-cell fraction (THZ1 [1]; 0.0003162 µM): -0.0024
- increase in dead-cell fraction (THZ1 [1]; 0.001 µM): -0.0042
- increase in dead-cell fraction (THZ1 [1]; 0.003162 µM): 0.0021
- increase in dead-cell fraction (THZ1 [1]; 0.01 µM): 0.0161
- increase in dead-cell fraction (THZ1 [1]; 0.03162 µM): 0.0525
- increase in dead-cell fraction (THZ1 [1]; 0.1 µM): 0.133
- increase in dead-cell fraction (THZ1 [1]; 0.3162 µM): 0.101
- increase in dead-cell fraction (THZ1 [1]; 1 µM): 0.122
- increase in dead-cell fraction (LEE011/Ribociclib; 0.001 µM): 0.0026
- increase in dead-cell fraction (LEE011/Ribociclib; 0.003162 µM): 0.0128
- increase in dead-cell fraction (LEE011/Ribociclib; 0.01 µM): 0.0136
- increase in dead-cell fraction (LEE011/Ribociclib; 0.03162 µM): 0.016
- increase in dead-cell fraction (LEE011/Ribociclib; 0.1 µM): 0.025
- increase in dead-cell fraction (LEE011/Ribociclib; 0.3162 µM): 0.0275
- increase in dead-cell fraction (LEE011/Ribociclib; 1 µM): 0.0212
- increase in dead-cell fraction (LEE011/Ribociclib; 3.162 µM): 0.0344
- increase in dead-cell fraction (LEE011/Ribociclib; 10 µM): 0.05
- increase in dead-cell fraction (BSJ-03-123; 0.001 µM): -0.0008
- increase in dead-cell fraction (BSJ-03-123; 0.003162 µM): -0.0002
- increase in dead-cell fraction (BSJ-03-123; 0.01 µM): -0.0018
- increase in dead-cell fraction (BSJ-03-123; 0.03162 µM): 0.0081
- increase in dead-cell fraction (BSJ-03-123; 0.1 µM): 0.0016
- increase in dead-cell fraction (BSJ-03-123; 0.3162 µM): 0.0031
- increase in dead-cell fraction (BSJ-03-123; 1 µM): 0.0138
- increase in dead-cell fraction (BSJ-03-123; 3.162 µM): 0.007
- increase in dead-cell fraction (BSJ-03-123; 10 µM): 0.0618
- increase in dead-cell fraction (Flavopiridol [2]; 0.0001 µM): -0.0017
- increase in dead-cell fraction (Flavopiridol [2]; 0.0003162 µM): -0.0022
- increase in dead-cell fraction (Flavopiridol [2]; 0.001 µM): -0.0038
- increase in dead-cell fraction (Flavopiridol [2]; 0.003162 µM): -0.0016
- increase in dead-cell fraction (Flavopiridol [2]; 0.01 µM): -0.0001
- increase in dead-cell fraction (Flavopiridol [2]; 0.03162 µM): -0.0034
- increase in dead-cell fraction (Flavopiridol [2]; 0.1 µM): 0.0018
- increase in dead-cell fraction (Flavopiridol [2]; 0.3162 µM): 0.0317
- increase in dead-cell fraction (Flavopiridol [2]; 1 µM): 0.168
- increase in dead-cell fraction ([3]; 0.0001 µM): 0.0187
- increase in dead-cell fraction ([3]; 0.0003162 µM): -0.0038
- increase in dead-cell fraction ([3]; 0.001 µM): -0.0082
- increase in dead-cell fraction ([3]; 0.003162 µM): -0.004
- increase in dead-cell fraction ([3]; 0.01 µM): 0.0474
- increase in dead-cell fraction ([3]; 0.03162 µM): 0.251
- increase in dead-cell fraction ([3]; 0.1 µM): 0.309
- increase in dead-cell fraction ([3]; 0.3162 µM): 0.286
- increase in dead-cell fraction ([3]; 1 µM): 0.318
- increase in dead-cell fraction (Neratinib/HKI272; 0.0003162 µM): 0.0316
- increase in dead-cell fraction (Neratinib/HKI272; 0.001 µM): 0.0419
- increase in dead-cell fraction (Neratinib/HKI272; 0.003162 µM): 0.0613
- increase in dead-cell fraction (Neratinib/HKI272; 0.01 µM): 0.0661
- increase in dead-cell fraction (Neratinib/HKI272; 0.03162 µM): 0.119
- increase in dead-cell fraction (Neratinib/HKI272; 0.1 µM): 0.106
- increase in dead-cell fraction (Neratinib/HKI272; 0.3162 µM): 0.177
- increase in dead-cell fraction (Neratinib/HKI272; 1 µM): 0.212
- increase in dead-cell fraction (Neratinib/HKI272; 3.162 µM): 0.348
- increase in dead-cell fraction ([4]; 0.001 µM): 0.0151
- increase in dead-cell fraction ([4]; 0.003162 µM): 0.0243
- increase in dead-cell fraction ([4]; 0.01 µM): 0.117
- increase in dead-cell fraction ([4]; 0.03162 µM): 0.134
- increase in dead-cell fraction ([4]; 0.1 µM): 0.124
- increase in dead-cell fraction ([4]; 0.3162 µM): 0.104
- increase in dead-cell fraction ([4]; 1 µM): 0.15
- increase in dead-cell fraction ([4]; 3.162 µM): 0.147
- increase in dead-cell fraction ([4]; 10 µM): 0.626
- increase in dead-cell fraction ([5]; 0.0003162 µM): 0.0265
- increase in dead-cell fraction ([5]; 0.001 µM): 0.0374
- increase in dead-cell fraction ([5]; 0.003162 µM): 0.016
- increase in dead-cell fraction ([5]; 0.01 µM): 0.0502
- increase in dead-cell fraction ([5]; 0.03162 µM): 0.0578
- increase in dead-cell fraction ([5]; 0.1 µM): 0.115
- increase in dead-cell fraction ([5]; 0.3162 µM): 0.124
- increase in dead-cell fraction ([5]; 1 µM): 0.123
- increase in dead-cell fraction ([5]; 3.162 µM): 0.117
- GR value (THZ1 [6]; 0.0001 µM): 1 GR
- GR value (THZ1 [6]; 0.0003162 µM): 0.935 GR
- GR value (THZ1 [6]; 0.001 µM): 1.04 GR
- GR value (THZ1 [6]; 0.003162 µM): 0.716 GR
- GR value (THZ1 [6]; 0.01 µM): 0.61 GR
- GR value (THZ1 [6]; 0.03162 µM): 0.0146 GR
- GR value (THZ1 [6]; 0.1 µM): -0.0991 GR
- GR value (THZ1 [6]; 0.3162 µM): -0.106 GR
- GR value (THZ1 [6]; 1 µM): -0.277 GR
- GR value (Flavopiridol [7]; 0.0001 µM): 1.06 GR
- GR value (Flavopiridol [7]; 0.0003162 µM): 1.04 GR
- GR value (Flavopiridol [7]; 0.001 µM): 0.944 GR
- GR value (Flavopiridol [7]; 0.003162 µM): 0.819 GR
- GR value (Flavopiridol [7]; 0.01 µM): 0.916 GR
- GR value (Flavopiridol [7]; 0.03162 µM): 1.05 GR
- GR value (Flavopiridol [7]; 0.1 µM): 0.671 GR
- GR value (Flavopiridol [7]; 0.3162 µM): 0.0173 GR
- GR value (Flavopiridol [7]; 1 µM): -0.186 GR
- GR value (THZ531; 0.0001 µM): 1.1 GR
- GR value (THZ531; 0.0003162 µM): 0.965 GR
- GR value (THZ531; 0.001 µM): 0.877 GR
- GR value (THZ531; 0.003162 µM): 0.996 GR
- GR value (THZ531; 0.01 µM): 0.851 GR
- GR value (THZ531; 0.03162 µM): 0.38 GR
- GR value (THZ531; 0.1 µM): -0.333 GR
- GR value (THZ531; 0.3162 µM): -0.27 GR
- GR value (THZ531; 1 µM): -0.266 GR
- GR value ([8]; 0.0003162 µM): 1.08 GR
- GR value ([8]; 0.001 µM): 1.06 GR
- GR value ([8]; 0.003162 µM): 0.994 GR
- GR value ([8]; 0.01 µM): 0.851 GR
- GR value ([8]; 0.03162 µM): 0.607 GR
- GR value ([8]; 0.1 µM): 0.278 GR
- GR value ([8]; 0.3162 µM): 0.105 GR
- GR value ([8]; 1 µM): 0.0968 GR
- GR value ([8]; 3.162 µM): 0.0641 GR
